According to US20050009770A1, “Use of excipients to increase DNA uptake by swine muscle cells” (priority 2002, published 2005):

test system: swine muscle cells; test: Excipient testing in pigs: X-gal staining of muscle after IM injection of β galactosidase plasmid DNA with excipient; assay type: in vivo; details: excipient combined with plasmid DNA containing a β galactosidase gene; conclusion
Experimental: Solutions of sucrose (3-7%), DMSO (18-22%), Tween 80 (0.03-0.07%), or E. coli recombinant modified labile toxin (rmLT) (23-27 ug/dose) can be formulated at the desired final concentration in 150 mM sodium phosphate, pH 7.2, containing 1 mg/ml of the plasmid DNA of interest. Solutions can be assembled by dissolving the excipients and plasmid DNA in 150 mM sodium phosphate, pH 7.2 at the desired concentration. Alternatively, the preparations can be prepared as sub-solution, at twice their final concentration in 150 mM sodium phosphate, pH 7.2, and then mixed in equal volumes immediately prior to administration. The SEPA-DNA solution is prepared by adding 1 part of the respective DNA solution, at 5 mg/ml, to 4 parts SEPA.
Table 1 contains the scoring results of X-gal staining in swine muscles 5 days following injection of the various DNA and excipients solutions.
Each pig received a total of 6 injections. All injections administered in the longissimus dorsi muscle (3/side). Injections were approximately 2.5″ lateral to the spine. On each side of the pig, one site was located at approximately the last rib, and the two others were at approximately 6″ and 12″ cranial (towards the nose) from the last rib. Hair was clipped in an area approximately 1″ square to aid identification of injection sites. Injections were made in the center of each shaved area, at approximately 90′ angle to the skin surface. The pigs were restrained briefly in a self-locking head catch chute and the test article administered IM using a 1.5″ long 18 gauge needle attached to a 3 ml syringe. Each test article (treatment) was administered in a total of 3 injection sites (each on a different pig). The total volume of each injection was 1 ml.
Pigs were euthanized 5 days following administration of the respective DNA and excipient solution. A section of tissue approximately 1″ cubed, surrounding the point of entry of the needle, was excised. […] The amount of staining was determined by visual observation using a subjective scale from “No Staining” through a gradation to “Yes++++”. […]

Structure (SMILES)	DNA uptake by swine muscle cells, as indicated by tissue staining
CCCCCCCCCC1OCCO1 [SEPA solution, 2-n-Nonyl-1,3-dioxolane]	enhanced DNA uptake
OC[C@H]1O[C@@](CO)(O[C@H]2O[C@H](CO)[C@@H](O)[C@H](O)[C@H]2O)[C@@H](O)[C@@H]1O [5% Sucrose, sucrose]	enhanced DNA uptake
C[S+](C)[O-] [20% Dimethyl sulfoxide, dimethyl sulfoxide]	enhanced DNA uptake
